Here are results for 15 molecules from US20260242391A1 (priority 2023, published 2026).

Molecules are shown by their SMILES.

In one data set the test system is MDS-L cells. The note with it: MDS-L cells.
A further data set deals with HL-60. The data set can be described thus: HL-60 differentiation potency. The format is cell-based. The note with it: Homo sapiens.
A further data set can be described thus: in vitro. The following applies: human.

Protocol for MDS-L cells: MDS-L differentiation assay.
MDS-L were cultured in RPMI (17-105-CV, Corning) without phenol red and supplemented with 2 mM glutamine and 10% FBS. Cells first expanded in IL-3 until 70% confluence then pre-conditioned for 14 days with IL-3 (200-03, PeproTech), GCSF (300-23, PeproTech), and EPO (287-TC, R&D Systems) to promote erythroid and myeloid differentiation. A density of 10,000 cells per well were used in phenotypic assays. MDSL cells were spun and treatment media was replaced with media containing APC Anti-CD235a (GlyA) (551336, BD Biosciences) (1.25 μL per 50 L test) and incubated for 1 hour at 4° C. Cells were washed then counter stained with SYTOX-Green 1 M per 100 L prior to flow cytometry analysis. Dose response and pharmacological assays were analyzed using a ZE5 Cell Analyzer (BioRad) equipped with Everest software. Single, live, cells were analyzed for GlyA expression using FlowJo v10.7.2 software.

Consider `CC1=C(/C=C/C(C)=C/C=C/C(C)=C/C(=O)O)C(C)(C)CCC1` [ATRA, retinoic acid], for which the “Cytotoxicity as readout by live dead cell gating” value with MDS-L cells was “minimal cytotoxicity”.

For `CCCCCCCCCCCCCC(=O)O[C@@H]1[C@@H](C)[C@@]2(O)[C@@H](C=C(CO)C[C@]3(O)C(=O)C(C)=C[C@@H]23)[C@@H]2C(C)(C)[C@]12OC(C)=O` [phorbol 12-myristate 13-acetate (PMA), phorbol 12-myristate 13-acetate], the “Induction of differentiation of MDS-L cells (GlyA positivity), in words” value in the data set on MDS-L cells (anti-GlyA immunopositivity) is given as “efficacious at inducing differentiation”.

For the molecule `C[C@H]1[C@@H](Oc2ccc(CC(=O)NC34CC(C(=O)O)(C3)C4)cc2)O[C@@H]2O[C@@]3(C)CC[C@H]4[C@H](C)CC[C@@H]1[C@@]24OO3` [Compound 303, 3-(2-(4-(((3R,5aS,6R,8aS, 9R,10S,12R, 12aR)-3,6,9-trimethyldeca-hydro-12H-3,12-epoxy[1,2]dioxepino[4,3-i]isochromen-10-yl)oxy)phenyl)acetamido) bicyclo[1.1.1] pentane-1-carboxylic acid], the EC50 (as a rule, the concentration needed to bring the measured effect to its halfway point) in the data set on HL-60 was found to be 46.4 nM. The IC50 (as a rule, the concentration needed to halve the response being measured) in “in vitro” is over 20 µM.

`C[C@H]1[C@@H](OCc2ccc(C(=O)NC34CC(C(=O)O)(C3)C4)cc2)O[C@@H]2O[C@@]3(C)CC[C@H]4[C@H](C)CC[C@@H]1[C@@]24OO3` [Compound 273, 3-(4-((((3R,5aS,6R,8aS, 9R,10S,12R, 12aR)-3,6,9-trimethyldeca-hydro-12H-3,12-epoxy[1,2]dioxepino[4,3-i]isochromen-10-yl)oxy)methyl)benzamido) bicyclo[1.1.1] pentane-1-carboxylic acid]: the 50% effective concentration (EC50) in the data set on HL-60 was found to be 2890 nM. Further, the midpoint of inhibition in “in vitro”, the IC50, lay at 19.4 µM.

Turning to `C[C@H]1[C@@H](Oc2ccc(CC(=O)N[C@H]3CC[C@H](C(=O)O)C3)cc2)O[C@@H]2O[C@@]3(C)CC[C@H]4[C@H](C)CC[C@@H]1[C@@]24OO3` [Compound 307, (1S,3S)-3-(2-(4-(((3R,5aS,6R,8aS, 9R,10S,12R, 12aR)-3,6,9-trimethyldeca-hydro-12H-3,12-epoxy[1,2]dioxepino[4,3-i]isochromen-10-yl)oxy)phenyl)acetamido) cyclopentane-1-carboxylic acid], the EC50 in the data set on HL-60 was 25.9 nM. Also, in “in vitro”, half-maximal inhibition (IC50) required 11.7 µM.

In the data set with HL-60, `C[C@H]1[C@@H](OC[C@H]2CC[C@@H](C(=O)N[C@H]3C[C@@H](C(=O)O)C3)CC2)O[C@@H]2O[C@@]3(C)CC[C@H]4[C@H](C)CC[C@@H]1[C@@]24OO3` [Compound 241, (1S,3s)-3-((1R,4S)-4-((((3R,5aS,6R,8aS, 9R,10S,12R, 12aR)-3,6,9-trimethyldeca-hydro-12H-3,12-epoxy[1,2]dioxepino[4,3-i]isochromen-10-yl)oxy)methyl)cyclohexane-1-carboxamido) cyclobutane-1-carboxylic acid] displayed an EC50 of 214 nM. This molecule yielded an IC50 in the data set “in vitro” of 18.8 µM.

Molecule `C[C@H]1[C@@H](OC2CCc3cc(C(=O)O)ccc32)O[C@@H]2O[C@@]3(C)CC[C@H]4[C@H](C)CC[C@@H]1[C@@]24OO3` (stereo partly drawn) [Compound 226, 1-(((3R,5aS,6R,8aS, 9R,10S,12R, 12aR)-3,6,9-trimethyldeca-hydro-12H-3,12-epoxy[1,2]dioxepino[4,3-i]isochromen-10-yl)oxy)-2,3-dihydro-1H-indene-5-carboxylic acid] gave a concentration for a half-maximal effect (EC50) in the data set with HL-60 of 51.2 nM. Further, half-maximal inhibition in “in vitro” (IC50) was put at 12 µM.

Consider `C[C@H]1[C@@H](O[C@H]2CC[C@@H](C(=O)N[C@@H](CC(F)(F)F)C(=O)O)CC2)O[C@@H]2O[C@@]3(C)CC[C@H]4[C@H](C)CC[C@@H]1[C@@]24OO3` [Compound 237, (S)-4,4,4-trifluoro-2-((1R,4R)-4-(((3R,5aS,6R,8aS, 9R,10S,12R, 12aR)-3,6,9-trimethyldeca-hydro-12H-3,12-epoxy[1,2]dioxepino[4,3-i]isochromen-10-yl)oxy)cyclo-hexane-1-carboxamido) butanoic acid], for which the EC50 in the data set with HL-60 amounted to 7260 nM. In “in vitro” (HL-60 cells), this molecule displayed an IC50 of over 20 µM.

Regarding `C[C@H]1[C@@H](OCc2ccc(C(=O)N[C@H](C(=O)O)C(C)(C)C)cc2)O[C@@H]2O[C@@]3(C)CC[C@H]4[C@H](C)CC[C@@H]1[C@@]24OO3` [Compound 281, (S)-3,3-dimethyl-2-(4-((((3R,5aS,6R,8aS, 9R,10S,12R, 12aR)-3,6,9-trimethyldeca-hydro-12H-3,12-epoxy[1,2]dioxepino[4,3-i]isochromen-10-yl)oxy)methyl)benzamido) butanoic acid], a half-maximal response with HL-60 (EC50) required 112 nM. For the same molecule, in “in vitro”, the IC50 was determined as 0.43 µM.

Take `C[C@H]1[C@@H](OCc2ccc(NC(=O)[C@H]3CC[C@@H](C(=O)O)C3)cc2)O[C@@H]2O[C@@]3(C)CC[C@H]4[C@H](C)CC[C@@H]1[C@@]24OO3` [Compound 294, (1R,3S)-3-((4-((((3R,5aS,6R,8aS, 9R,10S,12R, 12aR)-3,6,9-trimethyldeca-hydro-12H-3,12-epoxy[1,2]dioxepino[4,3-i]isochromen-10-yl)oxy)methyl)phenyl)carbamoyl) cyclopentane-1-carboxylic acid]: a half-maximal response with HL-60 (EC50) required 65 nM. For the same molecule, half-maximal inhibition in the data set “in vitro” (IC50) required 15.8 µM.

In turn, `C[C@H]1[C@@H](OCC2CCN(C(=O)C(=O)O)CC2)O[C@@H]2O[C@@]3(C)CC[C@H]4[C@H](C)CC[C@@H]1[C@@]24OO3` [Compound 203, 2-oxo-2-(4-((((3R,5aS,6R,8aS, 9R,10S,12R, 12aR)-3,6,9-trimethyldeca-hydro-12H-3,12-epoxy[1,2]dioxepino[4,3-i]isochromen-10-yl)oxy)methyl)piperidin-1-yl)acetic acid] had a concentration giving a half-maximal response (EC50) with HL-60 of 17500 nM. This molecule yielded a half-inhibitory concentration (IC50) in “in vitro” of over 20 µM.

In turn, `C[C@H]1[C@@H](OCc2ccc(OCC(=O)O)cc2)O[C@@H]2OC3(C)CC[C@H]4[C@H](C)CC[C@@H]1[C@@]24OO3` (stereo in doubt) [Compound 274, 2-(4-((((3R,5aS,6R,8aS, 9R,10S,12R, 12aR)-3,6,9-trimethyldeca-hydro-12H-3,12-epoxy[1,2]dioxepino[4,3-i]isochromen-10-yl)oxy)methyl)phenoxy)acetic acid] yielded an EC50 in the data set on HL-60 of 848 nM. The molecule also displayed an IC50 in the data set “in vitro” of over 20 µM.

In the data set with HL-60, `C[C@H]1[C@@H](OC/C=C/[C@]2(F)CC[C@H](C(=O)O)CC2)O[C@@H]2O[C@@]3(C)CC[C@H]4[C@H](C)CC[C@@H]1[C@@]24OO3` [Compound 271, (1S,4r)-4-fluoro-4-((E)-3-(((3R,5aS,6R,8aS, 9R,10S,12R, 12aR)-3,6,9-trimethyldeca-hydro-12H-3,12-epoxy[1,2]dioxepino[4,3-i]isochromen-10-yl)oxy)prop-1-en-1-yl) cyclohexane-1-carboxylic acid] registered an EC50 of 92.4 nM. Moreover, the IC50 in the data set “in vitro” is 19.1 µM.

For the molecule `C[C@H]1[C@@H](OC[C@@]2(F)CCC(C(=O)O)C2)O[C@@H]2O[C@@]3(C)CC[C@H]4[C@H](C)CC[C@@H]1[C@@]24OO3` (stereo partly drawn) [Compound 210, (3R)-3-fluoro-3-((((3R,5aS,6R,8aS, 9R,10S,12R, 12aR)-3,6,9-trimethyldeca-hydro-12H-3,12-epoxy[1,2]dioxepino[4,3-i]isochromen-10-yl)oxy)methyl) cyclopentane-1-carboxylic acid], in the data set on HL-60, the EC50 was determined as 2500 nM. This molecule also returned an IC50 in “in vitro” of 7.58 µM.

Regarding `C[C@H]1[C@@H](Oc2ccc(CC(=O)N[C@H]3CC[C@@H](C(=O)O)CC3)cc2)O[C@@H]2O[C@@]3(C)CC[C@H]4[C@H](C)CC[C@@H]1[C@@]24OO3` [Compound 308, (1R,4s)-4-(2-(4-(((3R,5aS,6R,8aS, 9R,10S,12R, 12aR)-3,6,9-trimethyldeca-hydro-12H-3,12-epoxy[1,2]dioxepino[4,3-i]isochromen-10-yl)oxy)phenyl)acetamido) cyclohexane-1-carboxylic acid], in the data set on HL-60, the response was half-maximal at 12.1 nM (EC50). For the same molecule, the concentration for half-maximal inhibition (IC50) in “in vitro” (HL-60 cells) is over 20 µM.
